Laboratory results: patent US8188148B2, “Substituted 1,3-diphenylpropane derivatives, preparations and uses thereof” (Genfit, priority 2006, dated 2012)

What was measured:
db/db mouse = experiment: In vivo evaluation on db/db mouse: body weight, glycemia, insulinemia, plasma lipids; conditions: 50 mpk per os, 28 days
Experimental: The effect of the compounds according to the invention is evaluated in vivo on the db/db mouse by measuring the body weight evolution, the glucose levels, the insulin levels, the plasma total cholesterol and triglyceride levels, and by analyzing the distribution of cholesterol in different plasma lipoprotein fractions, after 28 days of a per os treatment with compounds according to the invention.
Female db/db mice were kept on a 12 hour/12 hour light/dark cycle at a constant temperature of 20±3° C. After a one week acclimatization period, the mice were weighed and divided into groups of 8 animals selected so as to render uniform the distribution of their body weights and their plasma lipid rates, determined before the experiment. The tested compounds were suspended in carboxymethylcellulose (Sigma C4888) and administered intra-gastric tube feeding once a day for 28 days at the chosen dose. The animals had free access to food and water (standard diet). Taking of food and weight gain are recorded throughout the experiment. At the end of the experiment, the animals were anesthetized after a 4 hour fast, a blood sample was taken using (EDTA) anticoagulant, then the mice were weighed and euthanized. The plasma was separated by centrifugation at 3000 rotations/minute for 20 minutes. The samples were kept at +4° C. The hepatic tissue and skeletal muscle tissue samples were taken and frozen immediately in liquid nitrogen then conserved at −80° C. for later analysis.
Murine plasma glucose is measured out according to an enzyme-colorimetric method using a Glucose RTU kit (Biomérieux). Glucose is transformed into gluconic acid under the action of glucose oxidase; the reaction releases hydrogen peroxide. Hydrogen peroxide is measured according to the Trinder reaction which, under the action of a peroxidase and in the presence of phenol and amino-4-antipyrine, produces water and a colored product, quinoneimine. The color intensity, due to the quinoneimine, is proportional to the amount of glucose present in the sample.
Murine insulin is measured using ELISA method (using the INSKR020 kit from provider Crystal chem.). A microplate is coated with a mouse anti-insulin antibody. Then, the serum to be assayed for insulin is placed onto the plate. A guinea pig anti-insulin antibody is used to recognize the complex formed by the mouse insulin and the anti-insulin monoclonal antibody. Finally an anti-guinea pig antibody labeled with peroxidase is added and bind to the guinea pig anti-insulin antibody. The colorimetric reaction is performed by adding an OPD (ortho phenyl diamine) enzyme substrate. The intensity of the color is proportional to the amount of insulin present in the sample.
Plasma lipid concentrations (total cholesterol and triglycerides) are measured by enzymatic assays (bioMérieux-Lyon-France) according to the provider's recommendations.
The different lipid fractions (VLDL, LDL, HDL) in the plasma were separated using gel-filtration chromatography. Cholesterol concentrations were then measured for each fraction by enzymatic assays (bioMérieux-Lyon-France) according to the provider's recommendations.

[1] = system: PPARs target genes (PDK4, UCP2); experiment: Hepatic and skeletal muscle gene expression by quantitative RT-PCR in db/db mouse; type: in vivo; conditions: 50 mpk, 28 days
Experimental: The effectiveness of the compounds according to the invention is also evaluated by measuring, in the hepatic and muscular (skeletal) tissues, the expression of genes involved in lipid and/or glucid metabolism and in energy dissipation. Each level of gene expression is normalized regarding the expression level of the reference gene 36B4 in the hepatic tissue, or regarding the expression level of the reference gene 18S in the gastrocnemius skeletal muscle. The induction factor, i.e. the ratio between the relative signal (induced by the compound according to the invention) and the average of the relative values obtained with the control group, is then calculated. The higher the induction factor is, the more the greater the compound promotes gene expression. The final result is represented as the average of the induction values obtained with each experimental group. • FIG. 4-8: Expression of PDK4 in the hepatic tissue of the db/db mouse, after 28 days of treatment with compound 1 and compound 3, administered at 50 mpk • FIG. 4-9: Expression of UCP2 (uncoupling protein 2) in the skeletal muscle tissue of the db/db mouse, after 28 days of treatment with compound 1 and compound 3, administered at 50 mpk
Total RNA was extracted from liver fragments by using a NucleoSpin® 96 RNA kit (Macherey Nagel, Hoerdt, France) according to the manufacturer's instructions.
Total RNA was extracted from gastrocnemius skeletal muscle fragments by using a RNeasy® Fibrous Tissue kit (Qiagen) according to the manufacturer's instructions.
1 μg of total RNA (quantified by spectrophotometry) was then reverse-transcripted into complementary DNA by means of a 1 hour reaction at 37° C. in a total volume of 20 μl containing a 1× buffer (Sigma), 1.5 mM of DTT, 0.18 mM of dNTPs (Promega), 200 ng of pdN6 (Amersham), 30 U of RNase inhibitor (Sigma), and 1 μl of MMLV-RT (Sigma).
The PCR quantitative experiments were carried out using the MyiQ Single-Color Real-Time PCR Detection System (Biorad, Marnes-la-Coquette, France) and were performed using the iQ SYBR Green Supermix kit according to the provider's recommendations, in 96-well plates in 5 μl of a diluted reverse-transcription solution at a hybridization temperature of 55° C. The specific primer pairs of the genes being studied were used:
The amount of fluorescence emitted is directly proportional to the amount of complementary DNA present at the beginning of the reaction and amplified during the PCR. For each target studied, a range of solutions is performed with successive dilutions of mixtures of a few microliters of different reverse-transcription solutions. The relative levels of expression of each target are thus determined by using efficiency curves obtained with the points relative to the range of PCR solutions. […]

SMILES: Cc1cc(CCC(=O)c2ccc(OC(F)(F)F)cc2)cc(C)c1OC(C)(C)C(=O)O [Compound 1, 2-[2,6-dimethyl-4-[3-[4-(trifluoromethyloxy)phenyl]-3-oxo-propyl]phenoxy]-2-methyl-propanoic acid]
- HDL-cholesterol fraction (distribution of cholesterol in plasma lipoprotein fractions) (db/db mouse): significant increase
- glycemia (plasma glucose) (db/db mouse): significantly reduced
- insulinemia (plasma insulin) (db/db mouse): significantly reduced
- body weight gain (db/db mouse; vs control): weight loss
- plasma free fatty acids (db/db mouse; vs control): very significantly decreased
- plasma triglycerides (db/db mouse; vs control): very significantly decreased
- total plasma cholesterol (db/db mouse; vs control): significantly increased
- expression of the gene coding for UCP2 in the skeletal muscle ([1]; gastrocnemius skeletal muscle): reduction
- hepatic expression of the gene coding for PDK4 ([1]; hepatic tissue): significant increase
